Among the data in patent publication US20240317721A1, “PYRAZOLYL DERIVATIVES AS INHIBITORS OF THE KRAS MUTANT PROTEIN” (NOVARTIS AG, priority 2021, published 2024) are IC50 values, retold here.

Each structure is given as a SMILES string.

The experiment has as its target KRasG12C (M1-K169, biotinylated on the N-terminus) (Homo sapiens (Human), UniProt P01116, G12C). Nature of the experiment: Covalent competition assay: scintillation proximity assay (SPA) quantifying covalent modification of KRASG12C. Format: binding. Conditions: competition with radiolabeled covalent probe (Compound B/Compound A), 2 hours incubation, 10 nM KRasG12C. In a few lines: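 Scintillation proximity readout after streptavidin bead capture (30 min) of biotinylated KRasG12C(M1-K169):GDP, 10 nM final, which was covalently labelled over 2 h by 25 nM radio-probe plus 475 nM cold probe unless blocked by compound.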
Background: SPA uses beads or plates that emit light when radiolabelled molecules are held near them.
Consider `C=CC(=O)N1C[C@]2(C[C@H](n3nc(N4CC[C@@H](CN5CCN(C6COC6)CC5)CC4(C)C)c(-c4c(Cl)c(Cl)cc5[nH]ncc45)c3C)C2)[C@H]1C` (single isomer, unassigned) [Example 201a], for which the IC50 turned out to be 4.3 µM.
As for `C=CC(=O)N1C[C@]2(C[C@H](n3nc(N4CC[C@@H](CN5CCN(C6COC6)CC5)CC4(C)C)c(-c4c(Cl)c(Cl)cc5[nH]ncc45)c3C)C2)[C@H]1C` (single isomer, unassigned) [Example 201b], the IC50 amounted to 0.017 µM.
In the case of `C=CC(=O)N1CC2(CC(n3nc(N4CCC5(CN(C)CCO5)CC4(C)C)c(-c4c(Cl)c(C)cc5[nH]ncc45)c3C)C2)C1` (single isomer, unassigned) [Example 207a, 1-(6-(4-(5-chloro-6-methyl-1H-indazol-4-yl)-5-methyl-3-(4,8,8-trimethyl-1-oxa-4,9-diazaspiro[5.5]undecan-9-yl)-1H-pyrazol-1-yl)-2-azaspiro[3.3]heptan-2-yl)prop-2-en-1-one] it was greater than 5 µM; in that of `C=CC(=O)N1CC2(CC(n3nc(N4CCC5(CN(C)CCO5)CC4(C)C)c(-c4c(Cl)c(C)cc5[nH]ncc45)c3C)C2)C1` (single isomer, unassigned) [Example 207b, 1-(6-(4-(5-chloro-6-methyl-1H-indazol-4-yl)-5-methyl-3-(4,8,8-trimethyl-1-oxa-4,9-diazaspiro[5.5]undecan-9-yl)-1H-pyrazol-1-yl)-2-azaspiro[3.3]heptan-2-yl)prop-2-en-1-one], 0.02 µM; in that of `C=CC(=O)N1CC2(CC(n3nc(N4CCC5(CN(C)CCO5)CC4(C)C)c(-c4c(Cl)c(C)cc5[nH]ncc45)c3C)C2)C1` (single isomer, unassigned) [Example 208a, 1-(6-(4-(5-chloro-6-methyl-1H-indazol-4-yl)-5-methyl-3-(4,8,8-trimethyl-1-oxa-4,9-diazaspiro[5.5]undecan-9-yl)-1H-pyrazol-1-yl)-2-azaspiro[3.3]heptan-2-yl)prop-2-en-1-one], 0.064 µM.
In the case of `C=CC(=O)N1CC2(CC(n3nc(N4CCC5(CN(C)CCO5)CC4(C)C)c(-c4c(Cl)c(C)cc5[nH]ncc45)c3C)C2)C1` (single isomer, unassigned) [Example 208b, 1-(6-(4-(5-chloro-6-methyl-1H-indazol-4-yl)-5-methyl-3-(4,8,8-trimethyl-1-oxa-4,9-diazaspiro[5.5]undecan-9-yl)-1H-pyrazol-1-yl)-2-azaspiro[3.3]heptan-2-yl)prop-2-en-1-one] it was 3.8 µM.
In the case of `C=CC(=O)N1CC2(CC(n3nc(N4CCC(N5CC(OC)C5)CC4(C)C)c(-c4c(Cl)c(Cl)cc5[nH]ncc45)c3C)C2)C1` (single isomer, unassigned) [Example 209a, 1-(6-(4-(5,6-dichloro-1H-indazol-4-yl)-3-(4-(3-methoxyazetidin-1-yl)-2,2-dimethylpiperidin-1-yl)-5-methyl-1H-pyrazol-1-yl)-2-azaspiro[3.3]heptan-2-yl)prop-2-en-1-one] it was 1.1 µM; in that of `C=CC(=O)N1CC2(CC(n3nc(N4CCC(N5CC(OC)C5)CC4(C)C)c(-c4c(Cl)c(Cl)cc5[nH]ncc45)c3C)C2)C1` (single isomer, unassigned) [Example 209b, 1-(6-(4-(5,6-dichloro-1H-indazol-4-yl)-3-(4-(3-methoxyazetidin-1-yl)-2,2-dimethylpiperidin-1-yl)-5-methyl-1H-pyrazol-1-yl)-2-azaspiro[3.3]heptan-2-yl)prop-2-en-1-one], 0.012 µM.
With `C=CC(=O)N1CC2(CC(n3nc(N4CCC(C(=O)N5CCN(C)CC5)CC4(C)C)c(-c4c(Cl)c(Cl)cc5[nH]ncc45)c3C)C2)C1` (single isomer, unassigned) [Example 211a, 1-(6-(4-(5,6-dichloro-1H-indazol-4-yl)-3-(2,2-dimethyl-4-(4-methylpiperazine-1-carbonyl)piperidin-1-yl)-5-methyl-1H-pyrazol-1-yl)-2-azaspiro[3.3]heptan-2-yl)prop-2-en-1-one], the IC50 worked out at 1.6 µM.

In general, IC50 refers to the point on the concentration scale where inhibition reaches its midpoint.
